Assay results as given in PMC7901646, “Pyrrolo[2′,3′:3,4]cyclohepta[1,2-d][1,2]oxazoles, a New Class of Antimitotic Agents Active against Multiple Malignant Cell Types” (Journal of Medicinal Chemistry, 2020).
Like-named read-outs stand apart in the source and are kept apart here.

Assays:
Type in all cases: cell-based
[1] = system: NCI-60 panel of human cancer cell lines; assay: NCI in vitro human tumor cell line screening, full panel; conditions: for MG_MID (mean graph midpoint): arithmetic mean for all tested cancer cell lines
From the text: (§1) on the full NCI-60 panel comprising cancer cell lines derived from nine human cancer cell types (leukemia, non-small-cell lung, colon, central nervous system, melanoma, ovarian, renal, prostate, and breast).[50]

[2] = system: A498; assay: NCI-60 screen; conditions: Homo sapiens, Renal Cancer
Method: as §1, with “All the synthesized compounds 51–76 were tested at a 10^–5 M concentration for their antitumor activity on the” for “on the”

[3] = system: ACHN; assay: NCI-60 screen; conditions: Homo sapiens, Renal Cancer
Method: as §1, with “All the synthesized compounds 51–76 were tested at a 10^–5 M concentration for their antitumor activity on the” for “on the”

[4] = system: CCRF-CEM; assay: NCI-60 screen; conditions: Homo sapiens, Leukemia
Method: as §1, with “All the synthesized compounds 51–76 were tested at a 10^–5 M concentration for their antitumor activity on the” for “on the”

[5] = system: COLO 205; assay: NCI-60 screen; conditions: Homo sapiens, Colon Cancer
Method: as §1, with “All the synthesized compounds 51–76 were tested at a 10^–5 M concentration for their antitumor activity on the” for “on the”

[6] = system: DU-145; assay: NCI-60 screen; conditions: Homo sapiens, Prostate Cancer
Method: as §1, with “All the synthesized compounds 51–76 were tested at a 10^–5 M concentration for their antitumor activity on the” for “on the”

[7] = system: HCT-116; assay: NCI-60 screen; conditions: Homo sapiens, Colon Cancer
Method: as §1, with “All the synthesized compounds 51–76 were tested at a 10^–5 M concentration for their antitumor activity on the” for “on the”

[8] = system: K-562; assay: NCI-60 screen; conditions: Homo sapiens, K562; Leukemia
Method: as §1, with “All the synthesized compounds 51–76 were tested at a 10^–5 M concentration for their antitumor activity on the” for “on the”

[9] = system: M14; assay: NCI-60 screen; conditions: Homo sapiens, Melanoma
Method: as §1, with “All the synthesized compounds 51–76 were tested at a 10^–5 M concentration for their antitumor activity on the” for “on the”

[10] = system: MCF7; assay: NCI-60 screen; conditions: Homo sapiens, Breast Cancer
Method: as §1, with “All the synthesized compounds 51–76 were tested at a 10^–5 M concentration for their antitumor activity on the” for “on the”

[11] = system: MDA-MB-231/ATCC; assay: NCI-60 screen; conditions: Homo sapiens, Breast Cancer
Method: as §1, with “All the synthesized compounds 51–76 were tested at a 10^–5 M concentration for their antitumor activity on the” for “on the”

[12] = system: MDA-MB-435; assay: NCI-60 screen; conditions: Homo sapiens, Melanoma
Method: as §1, with “All the synthesized compounds 51–76 were tested at a 10^–5 M concentration for their antitumor activity on the” for “on the”

[13] = system: MOLT-4; assay: NCI-60 screen; conditions: Homo sapiens, Leukemia
Method: as §1, with “All the synthesized compounds 51–76 were tested at a 10^–5 M concentration for their antitumor activity on the” for “on the”

[14] = system: NCI-H226; assay: NCI-60 screen; conditions: Homo sapiens, Non-Small-Cell Lung Cancer
Method: as §1, with “All the synthesized compounds 51–76 were tested at a 10^–5 M concentration for their antitumor activity on the” for “on the”

[15] = system: NCI-H460; assay: NCI-60 screen; conditions: Homo sapiens, Non-Small-Cell Lung Cancer
Method: as §1, with “All the synthesized compounds 51–76 were tested at a 10^–5 M concentration for their antitumor activity on the” for “on the”

[16] = system: NCI/ADR-RES; assay: NCI-60 screen; conditions: Homo sapiens, Ovarian Cancer
Method: as §1, with “All the synthesized compounds 51–76 were tested at a 10^–5 M concentration for their antitumor activity on the” for “on the”

[17] = system: PC-3; assay: NCI-60 screen; conditions: Homo sapiens, Prostate Cancer
Method: as §1, with “All the synthesized compounds 51–76 were tested at a 10^–5 M concentration for their antitumor activity on the” for “on the”

[18] = system: SF-268; assay: NCI-60 screen; conditions: Homo sapiens, CNS Cancer
Method: as §1, with “All the synthesized compounds 51–76 were tested at a 10^–5 M concentration for their antitumor activity on the” for “on the”

[19] = system: SK-MEL-5; assay: NCI-60 screen; conditions: Homo sapiens, Melanoma
Method: as §1, with “All the synthesized compounds 51–76 were tested at a 10^–5 M concentration for their antitumor activity on the” for “on the”

[20] = system: SNB-19; assay: NCI-60 screen; conditions: Homo sapiens, CNS Cancer
Method: as §1, with “All the synthesized compounds 51–76 were tested at a 10^–5 M concentration for their antitumor activity on the” for “on the”

[21] = system: SR; assay: NCI-60 screen; conditions: Homo sapiens, Leukemia
Method: as §1, with “All the synthesized compounds 51–76 were tested at a 10^–5 M concentration for their antitumor activity on the” for “on the”

[22] = system: UACC-62; assay: NCI-60 screen; conditions: Homo sapiens, Melanoma
Method: as §1, with “All the synthesized compounds 51–76 were tested at a 10^–5 M concentration for their antitumor activity on the” for “on the”

[23] = system: KM12; assay: NCI-60 screen; conditions: Homo sapiens, Colon Cancer
From the text: as §1

[24] = system: LOX IMVI; assay: NCI-60 screen; conditions: Homo sapiens, Melanoma
From the text: as §1

[25] = system: NCI-H522; assay: NCI-60 screen; conditions: Homo sapiens, Non-Small-Cell Lung Cancer
From the text: as §1

[26] = system: OVCAR-3; assay: NCI-60 screen; conditions: Homo sapiens, Ovarian Cancer
From the text: as §1

[27] = system: HBL1 (ABC DLBCL); assay: MTT cell proliferation, lymphoma; conditions: Homo sapiens, 72 h; for activity at 1 µM: of untreated cells, read-out: Proliferating cells (%); for IC50: MTT
Method: (§2) All compounds were further tested at the concentration of 1 μM on four cell lines derived from distinct lymphoma histotypes, plus two with secondary resistance to the PI3Kδ inhibitor idelalisib[51] or to the BTK inhibitor ibrutinib.[52] […] For comparison, the same experiments were conducted using compound 3, but the response to it was minimal, and thus it was not considered further.
(§3) Established human cell lines derived from germinal center B-cell (GCB) (SU-DHL-10), activated B-cell (ABC) (HBL1) diffuse large B-cell lymphoma (DLBCL), mantle cell lymphoma (MCL) (MINO), splenic marginal zone lymphoma (SMZL) (parental VL51, VL51 idelalisib resistant clone, VL51 ibrutinib resistant clone) were cultured in culture RPMI-1640 media supplemented with fetal bovine serum (10%), penicillin–streptomycin–neomycin (∼5,000 units of penicillin, 5 mg of streptomycinm and 10 mg of neomycin/mL, Sigma), and L-glutamine (1%). Vincristine sulfate was purchased from Sigma-Aldrich. Cell line identities were confirmed by CellCheck test (IDEXX, BioResearch, Ludwigsburg, Germany). All compounds were dissolved in dimethyl sulfoxide to obtain a stock concentration of 10 mM.
(§4) The antiproliferative activity of all compounds was assessed by using the 3-(4.5-dimethylthiazolyl-2)-2,5-diphenyltetrazolium bromide (MTT) test. Cells were seeded in 96-well plates (nontissue culture treated) at a density of 1 × 10^5 cells/mL and treated with a single concentration of 1 μM for 72 h. […] In this case, cells were treated in triplicate with serially diluted compounds in the appropriate tissue culture medium at a range of 40–10 000 nM. Cells were incubated for 72 h at 37 °C, 5% CO2. Wells containing medium only were included on each plate and served as blanks for absorbance readings. MTT (Sigma, Buchs, Switzerland) was prepared as a 5 mg/mL stock solution in phosphate buffered saline (PBS) and filter-sterilized. MTT solution (22 μL) was added to each well, and tissue culture plates were incubated at 37 °C for 4 h. Cells were then lysed with 25% sodium dodecyl sulfate lysis buffer, and absorbance was read at 570 nm using a Beckman Coulter-AD340 plate reader.

[28] = system: MINO (MCL); assay: MTT cell proliferation, lymphoma; conditions: Homo sapiens, 72 h; for activity at 1 µM: of untreated cells, read-out: Proliferating cells (%); for IC50: MTT
Method: as §2, §3, §4

[29] = system: SU-DHL-10 (GCB DLBCL); assay: MTT cell proliferation, lymphoma; conditions: Homo sapiens, SU-DHL10, 72 h; for activity at 1 µM: of untreated cells, read-out: Proliferating cells (%); for IC50: MTT
Method: as §2, §3, §4

[30] = system: VL51 (MZL); assay: MTT cell proliferation, lymphoma; conditions: Homo sapiens, 72 h; for activity at 1 µM: of untreated cells, read-out: Proliferating cells (%); for IC50: MTT
Method: as §2, §3, §4

[31] = system: VL51 ibrutinib-resistant; assay: MTT cell proliferation, lymphoma; conditions: Homo sapiens, 72 h, of untreated cells, read-out: Proliferating cells (%)
Method: as §2, §3, §4

[32] = system: VL51 idelalisib-resistant; assay: MTT cell proliferation, lymphoma; conditions: Homo sapiens, 72 h, of untreated cells, read-out: Proliferating cells (%)
Method: as §2, §3, §4

[33] = full NCI panel, five concentrations 10^–4–10^–8 M, read-out: GI50 (concentration that inhibits 50% net cell growth), range over panel

CCOC(=O)c1cc2c(n1Cc1cc(OC)cc(OC)c1)-c1oncc1CCC2 [Compound 66, Ethyl 9-(3,5-Dimethoxybenzyl)-4,5,6,9-tetrahydropyrrolo[2′,3′:3,4]cyclohepta[1,2-d][1,2]oxazole-8-carboxylate]
GI50 ([1]; Homo sapiens, prostate subpanel, read-out: GI50): 40 nM
MG_MID (mean graph midpoint) ([1]; full NCI panel): 0.08 µM
mean values of subpanel ([1]; colon and CNS cancers): 0.06 µM
GI50 [1, 33]: 10 to 13400 nM
calculated MG_MID value for each subpanel ([1]; melanoma, prostate and renal subpanels): 0.04 µM
GI50 [2]: 20 nM
GI50 [3]: 60 nM
GI50 [4]: 50 nM
GI50 [5]: 30 nM
GI50 [6]: 40 nM
GI50 [7]: 40 nM
GI50 [8]: 40 nM
GI50 [9]: 50 nM
GI50 [10]: 30 nM
GI50 [11]: 240 nM
GI50 [12]: 10 nM
GI50 [13]: 260 nM
GI50 [14]: 7.98 µM
GI50 [15]: 40 nM
GI50 [16]: 30 nM
GI50 [17]: 40 nM
GI50 [18]: 50 nM
GI50 [19]: 40 nM
GI50 [20]: 150 nM
GI50 [21]: 30 nM
GI50 [22]: 70 nM
GI50 [23]: 30 nM
GI50 [24]: 50 nM
GI50 [25]: 20 nM
GI50 [26]: 20 nM
activity at 1 µM [27]: 24.1%
IC50 [27]: 300 nM
activity at 1 µM [28]: 9.1%
IC50 [28]: 250 nM
activity at 1 µM [29]: 11.3%
IC50 [29]: 250 nM
activity at 1 µM [30]: 40.1%
IC50 [30]: 250 nM
activity at 1 µM [31]: 40.5%
activity at 1 µM [32]: 34.3%

CCOC(=O)c1cc2c(n1Cc1cc(OC)c(OC)c(OC)c1)-c1oncc1CCC2 [Compound 67, Ethyl 9-(3,4,5-Trimethoxybenzyl)-4,5,6,9-tetrahydropyrrolo[2′,3′:3,4]cyclohepta[1,2-d][1,2]oxazole-8-carboxylate]
MG_MID (mean graph midpoint) ([1]; full NCI panel): 0.20 µM
GI50 [1, 33]: 10 to 64900 nM
GI50 [2]: 110 nM
GI50 [3]: 290 nM
GI50 [4]: 300 nM
GI50 [5]: 40 nM
GI50 [6]: 280 nM
GI50 [7]: 190 nM
GI50 [8]: 130 nM
GI50 [9]: 150 nM
GI50 [10]: 40 nM
GI50 [11]: 480 nM
GI50 [12]: 20 nM
GI50 [13]: 390 nM
GI50 [14]: 1.21 µM
GI50 [15]: 230 nM
GI50 [16]: 60 nM
GI50 [17]: 170 nM
GI50 [18]: 520 nM
GI50 [19]: 170 nM
GI50 [20]: 560 nM
GI50 [21]: 40 nM
GI50 [22]: 50 nM
GI50 [23]: 50 nM
GI50 [24]: 410 nM
GI50 [25]: 10 nM
GI50 [26]: 30 nM
activity at 1 µM [27]: 24.2%
IC50 [27]: 900 nM
activity at 1 µM [28]: 8.9%
IC50 [28]: 600 nM
activity at 1 µM [29]: 11.2%
IC50 [29]: 600 nM
activity at 1 µM [30]: 40.5%
IC50 [30]: 500 nM
activity at 1 µM [31]: 40.4%
activity at 1 µM [32]: 36.6%
